Patent US20230117034A1, “PYRAZOLOTRIAZINES” (Bayer Aktiengesellschaft, priority 2019, published 2023)
Where two headings read alike, the source gives them in different places.

Legend:
CDK2/CycE = target: T1, CDK2/CycE (Homo sapiens, UniProt P24941); experiment: CDK2/CycE kinase assay (TR-FRET, 2 mM ATP); format: biochemical; conditions: 2 mM ATP (high ATP); median; read-out: CDK2/CyclinE, 2 mM ATP (high ATP), IC50 (median)
T1 construct: purchased ProQinase GmbH (Freiburg, Germany); host or cells: insect cells (Sf9)
Method in brief: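 Biotin-peptide phosphorylation (0.75 µM substrate, 2 mM ATP final, 25 min, 22 °C) by Sf9-expressed GST-CDK2/GST-CycE, after a 15-min compound pre-binding step. Inhibition scaled between enzyme-free (100%) and uninhibited (0%) wells.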

[1] = system: MDA-MB-231, human breast cancer cells; experiment: Proliferation assay MDA-MB-231 (crystal violet, 4 days); format: cell-based; conditions: MDA-MB-231 cells, median, read-out: Prolif-MDA MB-231, IC50-[mol/l] (median)
Method in brief: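 IC50 from a 4-parameter fit of crystal violet absorbance (595 nm), scaled between a day-0 plate (0%) and untreated wells (100%). Cells grown in 10% FCS medium were exposed to test substances at 0.01-10 µmol/L for 4 days, 0.1% DMSO final.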

[2] = target: T2, CYCLIN K (nuclear staining in CAL-120 cells) (Homo sapiens, UniProt O75909); experiment: CYCLIN K nuclear protein level: immunofluorescence high content analysis (CAL-120); format: cell-based; conditions: 24 h, 50% reduction of nuclear CCNK staining intensity, median, read-out: CYCLIN K degradation IF, DC50-[mol/l] (median)
T2 construct: endogenous in cells; host or cells: CAL-120 human breast cancer cells (DSMZ ACC 459)
Method in brief: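 Readout is automated confocal image analysis of nuclear cyclin K immunofluorescence (Hoechst nuclei) after PFA fixation. Cells were CAL-120, exposed to compound dose-response 24 h at 37 °C; values are DC50 for halving nuclear CCNK signal relative to DMSO and control wells.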

T2 sequence (O75909 whole entry): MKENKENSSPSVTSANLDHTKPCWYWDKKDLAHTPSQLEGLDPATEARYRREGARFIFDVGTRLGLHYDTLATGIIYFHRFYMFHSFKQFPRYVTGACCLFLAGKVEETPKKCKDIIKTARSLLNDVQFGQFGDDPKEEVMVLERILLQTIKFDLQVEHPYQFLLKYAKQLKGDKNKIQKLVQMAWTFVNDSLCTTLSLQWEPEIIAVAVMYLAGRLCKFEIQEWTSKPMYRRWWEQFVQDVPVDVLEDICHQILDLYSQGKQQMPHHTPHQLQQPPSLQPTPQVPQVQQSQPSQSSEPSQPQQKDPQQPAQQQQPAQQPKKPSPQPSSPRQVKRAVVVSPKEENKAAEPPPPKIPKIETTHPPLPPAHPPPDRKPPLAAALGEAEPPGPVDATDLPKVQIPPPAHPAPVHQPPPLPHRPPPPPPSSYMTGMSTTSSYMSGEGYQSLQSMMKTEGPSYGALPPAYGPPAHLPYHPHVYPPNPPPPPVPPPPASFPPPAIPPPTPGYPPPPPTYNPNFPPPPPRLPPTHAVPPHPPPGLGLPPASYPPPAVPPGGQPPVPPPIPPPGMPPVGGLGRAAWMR
T2 sequence (Q9NYV4 whole entry partner): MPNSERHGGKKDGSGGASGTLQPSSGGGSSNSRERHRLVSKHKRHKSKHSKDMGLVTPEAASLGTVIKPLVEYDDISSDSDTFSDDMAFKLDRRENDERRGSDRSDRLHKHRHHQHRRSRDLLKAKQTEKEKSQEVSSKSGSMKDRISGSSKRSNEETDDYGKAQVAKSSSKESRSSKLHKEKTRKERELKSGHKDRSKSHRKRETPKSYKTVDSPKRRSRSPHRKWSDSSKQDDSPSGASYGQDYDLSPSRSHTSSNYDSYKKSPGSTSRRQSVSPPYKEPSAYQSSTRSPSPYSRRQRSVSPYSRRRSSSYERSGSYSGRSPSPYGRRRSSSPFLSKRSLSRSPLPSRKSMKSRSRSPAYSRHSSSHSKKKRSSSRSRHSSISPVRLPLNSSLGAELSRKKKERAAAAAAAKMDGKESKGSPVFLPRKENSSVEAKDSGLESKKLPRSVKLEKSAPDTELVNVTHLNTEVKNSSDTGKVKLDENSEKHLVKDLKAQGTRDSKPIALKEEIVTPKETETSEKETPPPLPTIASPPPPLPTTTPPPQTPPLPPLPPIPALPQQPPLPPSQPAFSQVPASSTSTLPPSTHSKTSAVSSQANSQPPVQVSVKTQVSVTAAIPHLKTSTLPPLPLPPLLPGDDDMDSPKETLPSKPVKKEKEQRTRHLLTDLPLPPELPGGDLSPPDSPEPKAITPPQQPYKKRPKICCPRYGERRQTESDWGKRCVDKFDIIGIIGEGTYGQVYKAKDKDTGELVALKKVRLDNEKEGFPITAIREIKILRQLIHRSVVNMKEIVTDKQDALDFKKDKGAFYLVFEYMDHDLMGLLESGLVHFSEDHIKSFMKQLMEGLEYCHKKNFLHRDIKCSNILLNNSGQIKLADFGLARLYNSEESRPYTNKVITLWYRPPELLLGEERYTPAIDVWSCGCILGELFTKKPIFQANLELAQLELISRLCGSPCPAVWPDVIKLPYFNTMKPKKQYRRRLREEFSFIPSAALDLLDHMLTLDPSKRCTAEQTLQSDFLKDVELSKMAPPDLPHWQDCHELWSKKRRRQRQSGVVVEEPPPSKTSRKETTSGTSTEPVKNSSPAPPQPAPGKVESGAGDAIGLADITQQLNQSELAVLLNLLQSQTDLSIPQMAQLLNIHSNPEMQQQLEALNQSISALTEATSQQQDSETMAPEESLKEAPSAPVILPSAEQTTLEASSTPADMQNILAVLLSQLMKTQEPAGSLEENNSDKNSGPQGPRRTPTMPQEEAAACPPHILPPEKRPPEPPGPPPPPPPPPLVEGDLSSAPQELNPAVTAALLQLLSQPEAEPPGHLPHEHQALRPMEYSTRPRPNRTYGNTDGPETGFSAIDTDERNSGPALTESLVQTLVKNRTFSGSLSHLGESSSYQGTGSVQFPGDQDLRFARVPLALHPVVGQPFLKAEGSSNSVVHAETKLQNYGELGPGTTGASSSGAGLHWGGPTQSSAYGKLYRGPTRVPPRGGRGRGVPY

| SMILES | IC50 (CDK2/CycE) [nM] | IC50 ([1]; Homo sapiens, MDA-MB-231, 96 h) [nM] | DC50 [2] [nM] | IC50 [1] [nM] |
| --- | --- | --- | --- | --- |
| CC1(N)CCN(c2nc(NCc3nc4ccccc4[nH]3)n3ncc(Br)c3n2)CC1 [Example 290, 2-(4-amino-4-methylpiperidin-1-yl)-N-[(1H-benzimidazol-2-yl)methyl]-8-bromopyrazolo[1,5-a][1,3,5]triazin-4-amine] | 7210 | 64.9 | 8.58 | – |
| Fc1ccc2[nH]c(CNc3nc(N4CCOCC4)nc4c(CC(F)(F)F)cnn34)nc2c1F [Example 268, N-[(4,5-difluoro-1H-benzimidazol-2-yl)methyl]-2-(morpholin-4-yl)-8-(2,2,2-trifluoroethyl)pyrazolo[1,5-a][1,3,5]triazin-4-amine] | > 20000 | 9.43 | 0.756 | – |
| CN1CCN(c2nc(NCc3nc4ccccc4[nH]3)n3ncc(C(F)(F)F)c3n2)CC1 [Example 297, N-[(1H-benzimidazol-2-yl)methyl]-2-(4-methylpiperazin-1-yl)-8-(trifluoromethyl)pyrazolo[1,5-a][1,3,5]triazin-4-amine] | 13300 | 77.7 | 0.679 | – |
| Fc1ccc2[nH]c(CNc3nc(N4CCOCC4)nc4c([C@@H]5CC5(F)F)cnn34)nc2c1 (single isomer, unassigned) [Example 315, 8-[(1R or S)-2,2-difluorocyclopropyl]-N-[(5-fluoro-1H-benzimidazol-2-yl)methyl]-2-(morpholin-4-yl)pyrazolo[1,5-a][1,3,5]triazin-4-amine] | > 20000 | 88 | 2.15 | – |
| CN1CCN(c2nc(NCc3nc4cc(Cl)ccc4[nH]3)n3ncc(C(F)(F)F)c3n2)CC1 [Example 298, N-[(5-chloro-1H-benzimidazol-2-yl)methyl]-2-(4-methylpiperazin-1-yl)-8-(trifluoromethyl)pyrazolo[1,5-a][1,3,5]triazin-4-amine] | > 19500 | 10.5 | 1.44 | – |
| CNC1CCN(c2nc(NCc3nc4ccccc4[nH]3)n3ncc(Br)c3n2)CC1 [Example 272, N-[(1H-benzimidazol-2-yl)methyl]-8-bromo-2-[4-(methylamino)piperidin-1-yl]pyrazolo[1,5-a][1,3,5]triazin-4-amine] | 16200 | 27.7 | 1.38 | – |
| Fc1cccc2[nH]c(CNc3nc(N4C[C@H]5CC[C@@H](C4)N5)nc4c(C5CC5)cnn34)nc12 [Example 296, 8-cyclopropyl-2-[(1R,5S)-3,8-diazabicyclo[3.2.1]octan-3-yl]-N-[(4-fluoro-1H-benzimidazol-2-yl)methyl]pyrazolo[1,5-a][1,3,5]triazin-4-amine] | 5610 | 4.4 | 1.15 | – |
| FC(F)(F)Cc1cnn2c(NCc3nc4cc(Cl)ccc4[nH]3)nc(N3CCOCC3)nc12 [Example 299, N-[(5-chloro-1H-benzimidazol-2-yl)methyl]-2-(morpholin-4-yl)-8-(2,2,2-trifluoroethyl)pyrazolo[1,5-a][1,3,5]triazin-4-amine] | > 20000 | 8.53 | 0.484 | – |
| CC1CN(C)CCN1c1nc(NCc2nc3ccccc3[nH]2)n2ncc(Br)c2n1 (single isomer, unassigned; enantiomer 2) [Example 261, N-(1H-benzimidazol-2-ylmethyl)-8-bromo-2-[(2R or S)-2,4-dimethylpiperazin-1-yl]pyrazolo[1,5-a][1,3,5]triazin-4-amine (Enantiomer 2)] | 7290 | – | 1.23 | 99.9 |
| NC1CCN(c2nc(NCc3nc4ccccc4[nH]3)n3ncc(Br)c3n2)CC1 [Example 256, 2-(4-aminopiperidin-1-yl)-N-[(1H-benzimidazol-2-yl)methyl]-8-bromopyrazolo[1,5-a][1,3,5]triazin-4-amine] | 5060 | 12.6 | 0.326 | – |
| CN(CC(C)(C)O)c1nc(NCc2nc3c(F)cccc3[nH]2)n2ncc(C3CC3)c2n1 [Example 295, 1-[(8-cyclopropyl-4-{[(4-fluoro-1H-benzimidazol-2-yl)methyl]amino}pyrazolo[1,5-a][1,3,5]triazin-2-yl)(methyl)amino]-2-methylpropan-2-ol] | 2060 | 23.7 | 2.55 | – |
| N[C@@H]1[C@@H]2C[C@H]1CN(c1nc(NCc3nc4ccccc4[nH]3)n3ncc(Br)c3n1)C2 [Example 289, 2-[(1R,5S,6s)-6-amino-3-azabicyclo[3.1.1]heptan-3-yl]-N-[(1H-benzimidazol-2-yl)methyl]-8-bromopyrazolo[1,5-a][1,3,5]triazin-4-amine] | 5290 | 10.3 | 1.76 | – |
| OCC1CN(c2nc(NCc3nc4ccccc4[nH]3)n3ncc(Br)c3n2)C1 [Example 304, [1-(4-{[(1H-benzimidazol-2-yl)methyl]amino}-8-bromopyrazolo[1,5-a][1,3,5]triazin-2-yl)azetidin-3-yl]methanol] | 8430 | 299 | 12.4 | – |
| Brc1cnn2c(NCc3nc4ccccc4[nH]3)nc(N3CC4CCNC4C3)nc12 (stereo not drawn) [Example 271, 2-(2,3,3a,4,6,6a-hexahydro-1H-pyrrolo[2,3-c]pyrrol-5-yl)-N-(1H-benzimidazol-2-ylmethyl)-8-bromo-pyrazolo[1,5-a][1,3,5]triazin-4-amine] | 10000 | 40 | 1.21 | – |
| Brc1cnn2c(NCc3ncc(-c4ccccc4)[nH]3)nc(N3CCOCC3)nc12 [Example 23, 8-bromo-2-(morpholin-4-yl)-N-[(5-phenyl-1H-imidazol-2-yl)methyl]pyrazolo[1,5-a][1,3,5]triazin-4-amine] | 1410 | 33.9 | 1.02 | – |
| FC(F)(F)Cc1cnn2c(NCc3nc4cc(Cl)c(Cl)cc4[nH]3)nc(N3CCOCC3)nc12 [Example 302, N-[(5,6-dichloro-1H-benzimidazol-2-yl)methyl]-2-(morpholin-4-yl)-8-(2,2,2-trifluoroethyl)pyrazolo[1,5-a][1,3,5]triazin-4-amine] | > 20000 | 11.9 | 1.66 | – |
| C[C@@]1(O)CCN(c2nc(NCc3nc4ccccc4[nH]3)n3ncc(Br)c3n2)C1 (single isomer, unassigned) [Example 281, (3R or S)-1-(4-{[(1H-benzimidazol-2-yl)methyl]amino}-8-bromopyrazolo[1,5-a][1,3,5]triazin-2-yl)-3-methylpyrrolidin-3-ol] | 3280 | 306 | 20.8 | – |
| Fc1ccc2[nH]c(CNc3nc(N4CCOCC4)nc4c(CC(F)(F)F)cnn34)nc2c1 [Example 308, N-[(5-fluoro-1H-benzimidazol-2-yl)methyl]-2-(morpholin-4-yl)-8-(2,2,2-trifluoroethyl)pyrazolo[1,5-a][1,3,5]triazin-4-amine] | > 20000 | 27.9 | 1.02 | – |
| Fc1ccc2[nH]c(CNc3nc(N4CC5CCC(C4)N5)nc4c(C(F)(F)F)cnn34)nc2c1F [Example 310, 2-(3,8-diazabicyclo[3.2.1]octan-3-yl)-N-[(4,5-difluoro-1H-benzimidazol-2-yl)methyl]-8-(trifluoromethyl)pyrazolo[1,5-a][1,3,5]triazin-4-amine] | > 18600 | 3.48 | 0.29 | – |
| FC1(F)CC1c1cnn2c(NCc3nc4ccccc4[nH]3)nc(N3CCOCC3)nc12 (stereo not drawn) [Example 279, N-[(1H-benzimidazol-2-yl)methyl]-8-(2,2-difluorocyclopropyl)-2-(morpholin-4-yl)pyrazolo[1,5-a][1,3,5]triazin-4-amine] | > 20000 | 34.8 | 3.78 | – |
| CC1CN(C)CCN1c1nc(NCc2nc3ccccc3[nH]2)n2ncc(Br)c2n1 (single isomer, unassigned; enantiomer 1) [Example 260, N-(1H-benzimidazol-2-ylmethyl)-8-bromo-2-[(2R or S)-2,4-dimethylpiperazin-1-yl]pyrazolo[1,5-a][1,3,5]triazin-4-amine (Enantiomer 1)] | 2980 | – | 0.152 | 13.4 |
| CN1CCN(c2nc(NCc3nc4cc(F)c(Cl)cc4[nH]3)n3ncc(C4CC4)c3n2)CC1 [Example 309, N-[(6-chloro-5-fluoro-1H-benzimidazol-2-yl)methyl]-8-cyclopropyl-2-(4-methylpiperazin-1-yl)pyrazolo[1,5-a][1,3,5]triazin-4-amine] | > 20000 | 6.31 | 0.914 | – |
| c1ccc2[nH]c(CNc3nc(N4CCNCC4)nc4c(C5CC5)cnn34)nc2c1 [Example 247, N-[(1H-benzimidazol-2-yl)methyl]-8-cyclopropyl-2-(piperazin-1-yl)pyrazolo[1,5-a][1,3,5]triazin-4-amine] | > 20000 | 50.7 | 0.933 | – |
